Data as given in US12180197B2, “GLP-1R modulating compounds” (Gilead Sciences, Inc., priority 2021, dated 2024).

What follows are compounds tested against T1, GLP-1R (Homo sapiens, UniProt P43220) (assay: GLP-1R Activation - cAMP Assay 2). Conditions: cAMP increase in CHO cells stably expressing GLP-1R; pre-spotted agonists; assay buffer or 100% Human Plasma (not given); 30 minutes.
Assay type: cell-based
Description: GLP-1R Activation—cAMP Assay 2
GLP-1R activation by small molecule agonists is quantified by measuring cAMP increase in CHO cells stably expressing GLP-1R (MultiSpan product #C1267-1a). 50 nL of agonists are pre-spotted in a 10 point dose response onto 384-well plate (Corning product #CL3826) using the Labcyte Echo System. The cells are harvested and plated in assay buffer (HBSS (Corning product #21-023-CV) with 20 mM Hepes (Gibco product #15630-080) and 0.1% BSA (Rockland Immunochemicals product #BSA-1000)) or 100% Human Plasma (Innovative Research product #50-643-396) at 1,000 cells/well, 10 μL/well, onto the pre-spotted plates. The cells are then incubated for 30 minutes at 37° C., 5% CO2. cAMP concentration increase is then detected using Cisbio's cAMP Gs Dynamic Kit (product #62AM4PEC) according to the manufacturer's protocol. The response is plotted against the log of the agonist concentration and fitted to a sigmoidal equation to determine the EC50.

T1 sequence (P43220 24-463): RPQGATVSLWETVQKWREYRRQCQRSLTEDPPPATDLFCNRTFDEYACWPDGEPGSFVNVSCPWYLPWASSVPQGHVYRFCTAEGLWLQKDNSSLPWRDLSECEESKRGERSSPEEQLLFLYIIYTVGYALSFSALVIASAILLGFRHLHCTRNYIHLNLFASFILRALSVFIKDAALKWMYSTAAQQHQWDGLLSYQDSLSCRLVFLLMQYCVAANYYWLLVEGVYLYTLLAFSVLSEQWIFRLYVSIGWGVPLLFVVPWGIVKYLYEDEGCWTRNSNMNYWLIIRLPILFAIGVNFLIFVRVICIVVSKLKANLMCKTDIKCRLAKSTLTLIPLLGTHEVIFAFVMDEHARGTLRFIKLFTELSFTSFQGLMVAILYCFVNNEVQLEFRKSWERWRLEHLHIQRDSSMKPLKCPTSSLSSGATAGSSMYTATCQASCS

| SMILES | EC50 [nM] |
| --- | --- |
| Cn1cc(-c2ccc(COc3cccc(C4CCN(Cc5nc6ccc(C(=O)O)cc6n5C[C@@H]5CCO5)CC4)n3)c(F)c2)cn1 [Example 15, 2-[[4-[6-[[2-fluoro-4-(1-methylpyrazol-4-yl)phenyl]methoxy]-2-pyridyl]-1-piperidyl]methyl]-3-[[(2S)-oxetan-2-yl]methyl]benzimidazole-5-carboxylic acid] | 0.5 |
| O=C(O)c1ccc2nc(CN3CCC(c4cccc(OCc5ccc(-c6cnc(C7CC7)o6)cc5F)n4)CC3)n(C[C@@H]3CCO3)c2c1 [Example 20, (S)-2-((4-(6-((4-(2-cyclopropyloxazol-5-yl)-2-fluorobenzyl)oxy)pyridin-2-yl)piperidin-1-yl)methyl)-1-(oxetan-2-ylmethyl)-1H-benzo[d]imidazole-6-carboxylic acid] | 1.9 |
| O=C(O)c1ccc2nc(CN3CCC(c4cccc(OCc5ccc(-c6cn(C7CC7)nn6)cc5F)n4)CC3)n(C[C@@H]3CCO3)c2c1 [Example 23, (S)-2-((4-(6-((4-(1-cyclopropyl-1H-1,2,3-triazol-4-yl)-2-fluorobenzyl)oxy)pyridin-2-yl)piperidin-1-yl)methyl)-1-(oxetan-2-ylmethyl)-1H-benzo[d]imidazole-6-carboxylic acid] | 1.7 |
| O=C(O)c1ccc2nc(CN3CCC(c4cccc(OCc5ccc(-n6cc(C7CC7)nn6)cc5F)n4)CC3)n(C[C@@H]3CCO3)c2c1 [Example 40, 2-[[4-[6-[[4-(4-cyclopropyltriazol-1-yl)-2-fluoro-phenyl]methoxy]-2-pyridyl]-1-piperidyl]methyl]-3-[[(2S)-oxetan-2-yl]methyl]benzimidazole-5-carboxylic acid] | 1.3 |
| Cn1cc(C#Cc2ccc(COc3cccc(C4CCN(Cc5nc6ccc(C(=O)O)cc6n5C[C@@H]5CCO5)CC4)n3)c(F)c2)cn1 [Example 22, 2-[[4-[6-[[2-fluoro-4-[2-(1-methylpyrazol-4-yl)ethynyl]phenyl]methoxy]-2-pyridyl]-1-piperidyl]methyl]-3-[[(2S)-oxetan-2-yl]methyl]benzimidazole-5-carboxylic acid] | 3.1 |
| O=C(O)c1ccc2nc(CN3CCC(c4cccc(OCc5ccc(-c6cn(C7COC7)nn6)cc5F)n4)CC3)n(C[C@@H]3CCO3)c2c1 [Example 24, (S)-2-((4-(6-((2-fluoro-4-(1-(oxetan-3-yl)-1H-1,2,3-triazol-4-yl)benzyl)oxy)pyridin-2-yl)piperidin-1-yl)methyl)-1-(oxetan-2-ylmethyl)-1H-benzo[d]imidazole-6-carboxylic acid] | 1.7 |
| COCCn1c(CN2CCC(c3cccc(OCc4ccc(-c5cnn(C)c5)cc4F)n3)CC2)nc2ccc(C(=O)O)cc21 [Example 21, 2-((4-(6-((2-fluoro-4-(1-methyl-1H-pyrazol-4-yl)benzyl)oxy)pyridin-2-yl)piperidin-1-yl)methyl)-1-(2-methoxyethyl)-1H-benzo[d]imidazole-6-carboxylic acid] | 7.2 |
| COCCn1c(CN2CCC(c3cccc(OCc4ccc(-c5cn(C)nn5)cc4F)n3)CC2)nc2ccc(C(=O)O)cc21 [Example 17, 2-((4-(6-((2-fluoro-4-(1-methyl-1H-1,2,3-triazol-4-yl)benzyl)oxy)pyridin-2-yl)piperidin-1-yl)methyl)-1-(2-methoxyethyl)-1H-benzo[d]imidazole-6-carboxylic acid] | 24.6 |
| Cn1cc(-c2ccc(COc3cccc(C4CCN(Cc5nc6ccc(C(=O)O)cc6n5C[C@@H]5CCO5)CC4)n3)c(F)c2)nn1 [Example 18, (S)-2-((4-(6-((2-fluoro-4-(1-methyl-1H-1,2,3-triazol-4-yl)benzyl)oxy)pyridin-2-yl)piperidin-1-yl)methyl)-1-(oxetan-2-ylmethyl)-1H-benzo[d]imidazole-6-carboxylic acid] | 1.5 |
| O=C(O)c1ccc2nc(CN3CCC(c4cccc(OCc5ccc(-n6ccnn6)cc5F)n4)CC3)n(C[C@@H]3CCO3)c2c1 [Example 41, (S)-2-((4-(6-((2-fluoro-4-(1H-1,2,3-triazol-1-yl)benzyl)oxy)pyridin-2-yl)piperidin-1-yl)methyl)-1-(oxetan-2-ylmethyl)-1H-benzo[d]imidazole-6-carboxylic acid] | 0.3 |
| O=C(O)c1ccc2nc(CN3CCC(c4cccc(OCc5ccc(-c6cnn(C(F)F)c6)cc5F)n4)CC3)n(C[C@@H]3CCO3)c2c1 [Example 19, (S)-2-((4-(6-((4-(1-(difluoromethyl)-1H-pyrazol-4-yl)-2-fluorobenzyl)oxy)pyridin-2-yl)piperidin-1-yl)methyl)-1-(oxetan-2-ylmethyl)-1H-benzo[d]imidazole-6-carboxylic acid] | 0.2 |

Each compound was assayed against T1, GLP-1R (assay: GLP-1R Activation - cAMP Assay 1). Conditions: cAMP increase in CHO cells stably expressing GLP-1R; 30 minutes incubation; 10 point dose response.
Assay type: cell-based
Description: GLP-1R Activation—cAMP Assay 1
GLP-1R activation by a compound of the present disclosure was quantified by measuring cAMP increase in CHO cells stably expressing GLP-1R (MultiSpan product #C1267-1a). The cells were harvested and plated in growth medium (DMEM/F-12 (Corning product #10-090-CV) supplemented with 10% FBS (HyClone product #SH30071-03), penicillin/streptomycin (Corning product #30-002CI) and 10 µg/ml puromycin (Gibco product #A11138-03)) at 1,000 cells/well in a 384-well plate (Greiner product #781080). The cells were then incubated overnight at 37° C., 5% CO2. The next day, the medium was removed and the cells were washed with DPBS (Corning product #21-031-CM) before adding the assay medium (HBSS, Corning product #21-023-CV) with 20 mM Hepes (Gibco product #15630-080) and 0.1% BSA (Rockland Immunochemicals product #BSA-1000)). Following the medium change, the cells were incubated for 1 hour at 37° C., 5% CO2. The tested GLP-1 compound was added to the cells in a 10 point dose response followed by a 30 minutes incubation at 37° C., 5% CO2. cAMP concentration increase was then detected using Cisbio's cAMP Gs Dynamic Kit (product #62AM4PEC) according to the manufacturer's protocol. The response was plotted against the log of the agonist concentration and fitted to a sigmoidal equation to determine the EC50.

| SMILES | EC50 [nM] |
| --- | --- |
| COCCn1c(CN2CCC(c3cccc(OCc4ccc(COC)cc4)n3)CC2)nc2ccc(C(=O)O)cc21 [Example 30, 1-(2-methoxyethyl)-2-((4-(6-((4-(methoxymethyl)benzyl)oxy)pyridin-2-yl)piperidin-1-yl)methyl)-1H-benzo[d]imidazole-6-carboxylic acid] | 297 |
| COCCn1c(CN2CCC(c3cccc(OCc4c(F)c(F)c(F)c(F)c4F)n3)CC2)nc2ccc(C(=O)O)cc21 [Example 14, 1-(2-methoxyethyl)-2-((4-(6-((perfluorophenyl)methoxy)pyridin-2-yl)piperidin-1-yl)methyl)-1H-benzo[d]imidazole-6-carboxylic acid] | > 100 |
| COCCn1c(CN2CCC(c3cccc(OCc4cccc5[nH]cnc45)n3)CC2)nc2ccc(C(=O)O)cc21 [Example 33, 2-((4-(6-((1H-benzo[d]imidazol-4-yl)methoxy)pyridin-2-yl)piperidin-1-yl)methyl)-1-(2-methoxyethyl)-1H-benzo[d]imidazole-6-carboxylic acid] | > 10000 |
| COCCn1c(CN2CCC(c3cccc(OCc4ccc5c(c4)OC(F)(F)O5)n3)CC2)nc2ccc(C(=O)O)cc21 [Example 6, 2-((4-(6-((2,2-difluorobenzo[d][1,3]dioxol-5-yl)methoxy)pyridin-2-yl)piperidin-1-yl)methyl)-1-(2-methoxyethyl)-1H-benzo[d]imidazole-6-carboxylic acid] | 10.5 |
| COCCn1c(CN2CCC(c3cccc(OCc4cccc5ccccc45)n3)CC2)nc2ccc(C(=O)O)cc21 [Example 5, 1-(2-methoxyethyl)-2-((4-(6-(naphthalen-1-ylmethoxy)pyridin-2-yl)piperidin-1-yl)methyl)-1H-benzo[d]imidazole-6-carboxylic acid] | 50.6 |
| COCCn1c(CN2CCC(c3cccc(OCc4ccc5cccnc5c4)n3)CC2)nc2ccc(C(=O)O)cc21 [Example 36, 1-(2-methoxyethyl)-2-((4-(6-(quinolin-7-ylmethoxy)pyridin-2-yl)piperidin-1-yl)methyl)-1H-benzo[d]imidazole-6-carboxylic acid] | 124 |
| COCCn1c(CN2CCC(c3cccc(OCc4ccc5ncsc5c4)n3)CC2)nc2ccc(C(=O)O)cc21 [Example 28, 2-((4-(6-(benzo[d]thiazol-6-ylmethoxy)pyridin-2-yl)piperidin-1-yl)methyl)-1-(2-methoxyethyl)-1H-benzo[d]imidazole-6-carboxylic acid] | 60.8 |
| COCCn1c(CN2CCC(c3cccc(OCc4ccc5ccncc5c4)n3)CC2)nc2ccc(C(=O)O)cc21 [Example 35, 2-((4-(6-(isoquinolin-7-ylmethoxy)pyridin-2-yl)piperidin-1-yl)methyl)-1-(2-methoxyethyl)-1H-benzo[d]imidazole-6-carboxylic acid] | 48.5 |
| COCCn1c(CN2CCC(c3cccc(OCc4ccc(C5CC5)cc4)n3)CC2)nc2ccc(C(=O)O)cc21 [Example 38, 2-((4-(6-((4-cyclopropylbenzyl)oxy)pyridin-2-yl)piperidin-1-yl)methyl)-1-(2-methoxyethyl)-1H-benzo[d]imidazole-6-carboxylic acid] | 58.3 |
| COCCn1c(CN2CCC(c3cccc(OCc4cccc5scnc45)n3)CC2)nc2ccc(C(=O)O)cc21 [Example 34, 2-((4-(6-(benzo[d]thiazol-4-ylmethoxy)pyridin-2-yl)piperidin-1-yl)methyl)-1-(2-methoxyethyl)-1H-benzo[d]imidazole-6-carboxylic acid] | 19.8 |
| COCCn1c(CN2CCC(c3cccc(OCc4ccc5c(c4)C(=O)OC5)n3)CC2)nc2ccc(C(=O)O)cc21 [Example 44, 1-(2-methoxyethyl)-2-((4-(6-((3-oxo-1,3-dihydroisobenzofuran-5-yl)methoxy)pyridin-2-yl)piperidin-1-yl)methyl)-1H-benzo[d]imidazole-6-carboxylic acid] | 109 |
